In patent publication US20200399392A1, “INHIBITORS OF PLA2-G1B COFACTORS FOR TREATING CANCER” (priority 2018, published 2020):

Key:
[1] = tested on: PLA2-GIB; test: PLA2-GIB enzymatic assay on [3H] arachidonic acid labelled Jurkat E6.1 T cells; assay type: cell-based, human
Procedure: Jurkat E6.1 T cells (ECACC 88042803) or gC1qR KO Jurkat E6.1 T cells were incubated for 17 h at 5×10^5 cells/ml with 1 μCi/ml of arachidonic acid [5,6,8,9,11,14,15-^3H(N)] (Perkin Elmer, NET298Z250UC) in RPMI 1640 medium (Lonza) supplemented with 10% FBS, 50 mM HEPES pH 7.4, glutamine, penicillin, streptomycin and fungizone at 2 ml/well in 6-well plates at 37° C. in a 5% CO2 humidified atmosphere. Cells were washed twice with RPMI with 10% FBS by centrifugation at 300×g for 10 minutes at room temperature and then frozen in 90% FBS 10% DMSO at 10^7 cells/ml/vial at −80° C. Percent of [3H] arachidonic acid in CD4 T cells is the (1 minus ratio of [3H] arachidonic acid in the supernatant of CD4 T cells without cells (cpm/ml) on total [3H] arachidonic acid in supernatant and cells (cpm/ml).
To test PLA2-GIB activity on [3H] arachidonic acid labelled Jurkat E6.1 T lymphocytes, cells were unfrozen in 10% FBS RPMI preheated at 37° C. by centrifugation at 300×g for 10 minutes at room temperature, washed twice in 2.5% FBS RPMI, and equilibrated at 5×10^4 or 10^5 Jurkat E6.1 T cells/400 μl/well in 24-well polystyrene plates for 1 h30 at 37° C. in a 5% CO2 humidified atmosphere. Then HCV core solution or vehicle dilution in 2.5% FBS RPMI at 5.95 μM was mixed with an equal volume of a PLA2GIB solution at 630 nM or 2 μM 2.5% FBS RPMI and 100 μl were added per well at the same time for 2 h. For peptide treatments, cells were pretreated for 2 h, 4 h or 21 h, as indicated on figures, with 50 μl per well of peptide solutions at 110 μM or 55 μM in 2.5% FBS RPMI. Then 50 μl per well of PLA2-GIB at 630 nM or 2 μM 2.5% FBS RPMI or medium alone were added for 2 h. Cells and supernatant were collected in eppendorf tubes and centrifuged at 580×g for 10 minutes at room temperature. The [3H] arachidonic acid released in cell supernatant was quantified in 300 μl with 16 ml of Ultima gold (Perkin Elmer, 6013329) in low diffusion vials (Perkin Elmer, 6000477) on a counter (tri-Carb 2800 TR liquid scintillation analyzer, Perkin Elmer).

[2] = target: T1, gC1qR (Homo sapiens, UniProt Q07021); test: gC1qR-peptides binding assay (ELISA on microplates); details: peptide coated, His-tag-gC1qR 0 to 3 μg/well, FIG. 12
T1 sequence (Q07021 74-282): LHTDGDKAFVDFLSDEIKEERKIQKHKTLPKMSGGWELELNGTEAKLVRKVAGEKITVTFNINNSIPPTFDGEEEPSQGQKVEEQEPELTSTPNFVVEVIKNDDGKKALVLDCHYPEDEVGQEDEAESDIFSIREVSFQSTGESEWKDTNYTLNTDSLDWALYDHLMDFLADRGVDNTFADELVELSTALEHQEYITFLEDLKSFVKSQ
Procedure: The unbound protein was removed; the wells washed 2× with TBST (20 mM Tris-HCl pH 7.5, 150 mM NaCl, and 0.05% Tween-20) and the unreacted sites blocked by incubation (30 min, room temp) with 300 μl of 3% BSA in TBST. After washing (2× with TBST), the microtiter plate bound peptides was incubated (2 h, room temp.) with different amount of His-tag-gC1qR ranging from 0 to 3 μg/well in triplicate. After washing (5 times with TBST), 100 μl of anti-His tag-HRP antibody (1:1000; 71840-3, Merck) in 3% BSA in TBST was added per well and incubated for 2 h at room temperature. Microplates wells were then washed (5 times with TBST) and 100 μl of TMB ELISA substrate standard solution (UP664781, Interchim) was added per well. Reaction was stopped with 100 μl per well of a H2SO4 solution at 0.16M and OD at 450 nm was measured on a microplate reader (Tecan Infinite M1000 Pro).
A scrambled peptide or a control peptide were used as control.

## NH2-PWNASWSNKSLDDIW—COOH (H-PWNASWSNKSLDDIW-OH) [PEP3]
[1]; Jurkat E6.1 WT cells, pretreatment 21 h, FIG. 13
  PLA2-GIB activity vs scrambled PEP3: increased significantly
[1]; pretreatment 4 h or more with peptide 11 μM, 200 nM PLA2-GIB, FIG. 11
  PLA2-GIB activity on the membrane of Jurkat E6.1 T cells vs scrambled PEP3: significantly increased
[2]
  binding to gC1qR: binds
